From patent publication US8829026B2, “Sulfamoyl benzoic acid heterobicyclic derivatives as TRPM8 antagonists” (RaQualia Pharma Inc., priority 2010, dated 2014)

Target: T1, human TRPM8 (Homo sapiens, UniProt Q7Z2W7)
T1 construct: expressed in transfected cells
Experiment: Menthol-induced Ca2+ influx in HEK293 cells stably expressing human TRPM8
Assay type: cell-based
Settings: 30 microM menthol-induced Ca2+ influx, HEK293 cells stably expressing human TRPM8, 11-point dose-response
Experimental: Measurement of the Menthol-Induced Ca^2+ Influx in HEK293 Cells Stably Expressing Human TRPM8
A cell-based Ca^2+ influx assay using HEK293 cells stably expressing human TRPM8 was used to identify the activity of compounds.
HEK293 cells stably expressing human TRPM8 were grown in T175 flasks at 37° C. in a 5% CO2 humidified incubator to about 80% confluence. Media composition consisted of Dulbecco's Modified Eagle Medium (high glucose), 10% fetal calf serum (FCS), 100 units/ml Penicillin, 100 microg/ml Streptomycin and 600 microg/ml Geneticine. At 24 hours prior to assay, cells were seeded in poly-D-lysine coated 384-well plates (BD FALCON) at a density of 30,000 cells per well in culture medium and grown overnight in 5% CO2 at 37° C. On the assay day, growth media was removed and cells were loaded with 0.5 microM Fluo4-AM (Molecular Probes) and 0.005% Pluronic F-127 dissolved in assay buffer (Hank's balanced salt solution (HBSS), 19.4 mM HEPES pH7.4, 2.5 mM Probenecid) for 1 hour at room temperature. After washing with assay buffer, the cells were preincubated with various concentrations of the compounds for 5 min. The changes in intracellular calcium concentration by addition of 30 microM menthol were monitored by the cell imaging technology by Hamamatsu Photonics's Functional Drug Screening System (FDSS).
The IC50 values for compounds of the present invention were determined from 11-point dose-response studies. Curves were generated using the average of duplicate wells for each data point. Finally, the IC50 values are calculated with the best-fit dose curve determined by XLfit (ID Business Solutions Ltd.).

T1 sequence (Q7Z2W7 whole entry): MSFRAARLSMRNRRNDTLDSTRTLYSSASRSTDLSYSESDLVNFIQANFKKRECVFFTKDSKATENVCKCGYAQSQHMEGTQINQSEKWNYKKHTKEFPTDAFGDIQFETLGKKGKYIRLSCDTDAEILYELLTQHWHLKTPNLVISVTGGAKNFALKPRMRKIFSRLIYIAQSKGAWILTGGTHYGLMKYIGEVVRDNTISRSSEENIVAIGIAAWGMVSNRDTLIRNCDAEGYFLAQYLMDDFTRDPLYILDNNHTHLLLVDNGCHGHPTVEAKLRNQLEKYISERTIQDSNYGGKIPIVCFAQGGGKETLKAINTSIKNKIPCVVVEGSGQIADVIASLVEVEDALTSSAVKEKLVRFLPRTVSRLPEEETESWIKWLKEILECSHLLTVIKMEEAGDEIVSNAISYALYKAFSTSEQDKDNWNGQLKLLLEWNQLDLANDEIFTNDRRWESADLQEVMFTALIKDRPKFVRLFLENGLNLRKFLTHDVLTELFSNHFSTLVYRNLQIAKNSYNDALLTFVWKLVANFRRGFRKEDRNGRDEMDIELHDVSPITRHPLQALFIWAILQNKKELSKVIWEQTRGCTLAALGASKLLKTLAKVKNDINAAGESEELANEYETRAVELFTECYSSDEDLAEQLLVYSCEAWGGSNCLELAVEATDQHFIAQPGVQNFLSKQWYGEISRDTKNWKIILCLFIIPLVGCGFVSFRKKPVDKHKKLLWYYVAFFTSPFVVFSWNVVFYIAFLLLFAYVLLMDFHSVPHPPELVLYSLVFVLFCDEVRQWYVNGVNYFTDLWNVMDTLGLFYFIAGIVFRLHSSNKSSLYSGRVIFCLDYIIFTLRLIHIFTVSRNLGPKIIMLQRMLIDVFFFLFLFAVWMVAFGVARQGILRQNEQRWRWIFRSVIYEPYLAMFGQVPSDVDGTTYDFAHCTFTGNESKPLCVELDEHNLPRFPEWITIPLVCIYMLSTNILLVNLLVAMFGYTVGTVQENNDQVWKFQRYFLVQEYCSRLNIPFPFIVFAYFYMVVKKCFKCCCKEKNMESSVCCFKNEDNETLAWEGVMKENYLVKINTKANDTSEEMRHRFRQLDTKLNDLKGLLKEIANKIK

Row | Compound | IC50 [µM]
1 | CCn1ncc2cc(CN(c3ncc(C(F)(F)F)cc3Cl)S(=O)(=O)c3ccc(C(=O)O)cc3Cl)ccc21 [Example 14, 3-Chloro-4-(N-(3-chloro-5-(trifluoromethyl)pyridin-2-yl)-N-((1-ethyl-1H-indazol-5-yl)methyl)sulfamoyl)benzoic acid] | < 1
2 | Cn1cc2cc(CN(c3ncc(C(F)(F)F)cc3Cl)S(=O)(=O)c3ccc(C(=O)O)cc3)ccc2n1 [Example 16, 4-(N-(3-Chloro-5-(trifluoromethyl)pyridin-2-yl)-N-((2-methyl-2H-indazol-5-yl)methyl)sulfamoyl)benzoic acid] | 1 to 10
3 | Cn1ncc2ccc(CN(c3ncc(C(F)(F)F)cc3Cl)S(=O)(=O)c3ccc(C(=O)O)cc3)cc21 [Example 17, 4-(N-(3-Chloro-5-(trifluoromethyl)pyridin-2-yl)-N-((1-methyl-1H-indazol-6-yl)methyl)sulfamoyl)benzoic acid] | < 1
4 | Cn1cc2ccc(CN(c3ncc(C(F)(F)F)cc3Cl)S(=O)(=O)c3ccc(C(=O)O)cc3)cc2n1 [Example 18, 4-(N-(3-Chloro-5-(trifluoromethyl)pyridin-2-yl)-N-((2-methyl-2H-indazol-6-yl)methyl)sulfamoyl)benzoic acid] | 1 to 10
5 | CCn1ncc2cc(CN(c3ncc(Cl)cc3Cl)S(=O)(=O)c3ccc(C(=O)O)cc3)ccc21 [Example 19, 4-(N-(3,5-Dichloropyridin-2-yl)-N-((1-ethyl-1H-indazol-5-yl)methyl)sulfamoyl)benzoic acid] | < 1
6 | COCCn1ncc2cc(CN(c3ncc(C(F)(F)F)cc3Cl)S(=O)(=O)c3ccc(C(=O)O)cc3)ccc21 [Example 20, 4-(N-(3-Chloro-5-(trifluoromethyl)pyridin-2-yl)-N-((1-(2-methoxyethyl)-1H-indazol-5-yl)methyl)sulfamoyl)benzoic acid] | < 1
7 | O=C(O)c1ccc(S(=O)(=O)N(Cc2ccc3c(cnn3C3CCOCC3)c2)c2ncc(C(F)(F)F)cc2Cl)cc1 [Example 21, 4-(N-(3-Chloro-5-(trifluoromethyl)pyridin-2-yl)-N-((1-(tetrahydro-2H-pyran-4-yl)-1H-indazol-5-yl)methyl)sulfamoyl)benzoic acid] | < 1
8 | CC(C)(O)Cn1ncc2cc(CN(c3ncc(C(F)(F)F)cc3Cl)S(=O)(=O)c3ccc(C(=O)O)cc3)ccc21 [Example 22, 4-(N-(3-Chloro-5-(trifluoromethyl)pyridin-2-yl)-N-((1-(2-hydroxy-2-methylpropyl)-1H-indazol-5-yl)methyl)sulfamoyl)benzoic acid] | 1 to 10
9 | CCc1cc(C(=O)O)ccc1S(=O)(=O)N(Cc1ccc2c(cnn2C)c1)c1ncc(Cl)cc1Cl [Example 23, 4-(N-(3,5-Dichloropyridin-2-yl)-N-((1-methyl-1H-indazol-5-yl)methyl)sulfamoyl)-3-ethylbenzoic acid] | < 1
10 | Cn1ncc2cc(CN(c3ncc(Cl)cc3Cl)S(=O)(=O)c3ccc(C(=O)O)cc3Cl)ccc21 [Example 24, 3-Chloro-4-(N-(3,5-dichloropyridin-2-yl)-N-((1-methyl-1H-indazol-5-yl)methyl)sulfamoyl)benzoic acid] | < 1
11 | Cn1ncc2cc(CN(c3ncc(C(F)(F)F)cc3Cl)S(=O)(=O)c3ccc(C(=O)O)cc3Cl)ccc21 [Example 25, 3-Chloro-4-(N-(3-chloro-5-(trifluoromethyl)pyridin-2-yl)-N-((1-methyl-1H-indazol-5-yl)methyl)sulfamoyl)benzoic acid] | < 1
12 | Cc1cc(C(=O)O)ccc1S(=O)(=O)N(Cc1ccc2c(cnn2C)c1)c1ncc(C(F)(F)F)cc1Cl [Example 26, 4-(N-(3-Chloro-5-(trifluoromethyl)pyridin-2-yl)-N-((1-methyl-1H-indazol-5-yl)methyl)sulfamoyl)-3-methylbenzoic acid] | < 1
13 | Cc1cc(C(=O)O)ccc1S(=O)(=O)N(Cc1ccc2c(cnn2C)c1)c1ncc(Cl)cc1Cl [Example 27, 4-(N-(3,5-Dichloropyridin-2-yl)-N-((1-methyl-1H-indazol-5-yl)methyl)sulfamoyl)-3-methylbenzoic acid] | < 1

Continued, values first:

Row | IC50 [µM] | Compound
14 | < 1 | Cn1ncc2cc(CN(c3ncc(C(F)(F)F)cc3Cl)S(=O)(=O)c3ccc(C(=O)O)cc3)ccc21 [Example 3, 4-(N-(3-Chloro-5-(trifluoromethyl)pyridin-2-yl)-N-((1-methyl-1H-indazol-5-yl)methyl)sulfamoyl)benzoic acid]
15 | < 1 | CCc1cc(C(=O)O)ccc1S(=O)(=O)N(Cc1ccc2c(cnn2C)c1)c1ncc(C(F)(F)F)cc1Cl [Example 4, 4-(N-(3-Chloro-5-(trifluoromethyl)pyridin-2-yl)-N-((1-methyl-1H-indazol-5-yl)methyl)sulfamoyl)-3-ethylbenzoic acid]
16 | < 1 | O=C(O)c1ccc(S(=O)(=O)N(Cc2ccc3occc3c2)c2ncc(Cl)cc2Cl)cc1 [Example 5, 4-(N-(Benzofuran-5-ylmethyl)-N-(3,5-dichloropyridin-2-yl)sulfamoyl)benzoic acid]
17 | < 1 | Cn1ccc2cc(CN(c3ncc(C(F)(F)F)cc3Cl)S(=O)(=O)c3ccc(C(=O)O)cc3)ccc21 [Example 6, 4-(N-(3-Chloro-5-(trifluoromethyl)pyridin-2-yl)-N-((1-methyl-1H-indol-5-yl)methyl)sulfamoyl)benzoic acid]
18 | < 1 | Cn1ccc2cc(CN(c3ncc(Cl)cc3Cl)S(=O)(=O)c3ccc(C(=O)O)cc3)ccc21 [Example 7, 4-(N-(3,5-Dichloropyridin-2-yl)-N-((1-methyl-1H-indol-5-yl)methyl)sulfamoyl)benzoic acid]
19 | < 1 | Cn1ccc2cc(CN(c3ncc(C(F)(F)F)cc3Cl)S(=O)(=O)c3ccc(C(=O)O)cc3Cl)ccc21 [Example 8, 3-Chloro-4-(N-(3-chloro-5-(trifluoromethyl)pyridin-2-yl)-N-((1-methyl-1H-indol-5-yl)methyl)sulfamoyl)benzoic acid]
20 | < 1 | Cn1ccc2cc(CN(c3ncc(Cl)cc3Cl)S(=O)(=O)c3ccc(C(=O)O)cc3Cl)ccc21 [Example 9, 3-Chloro-4-(N-(3,5-dichloropyridin-2-yl)-N-((1-methyl-1H-indol-5-yl)methyl)sulfamoyl)benzoic acid]
21 | < 1 | O=C(O)c1ccc(S(=O)(=O)N(Cc2ccc3ccoc3c2)c2ncc(Cl)cc2Cl)cc1 [Example 10, 4-(N-(Benzofuran-6-ylmethyl)-N-(3,5-dichloropyridin-2-yl)sulfamoyl)benzoic acid]
22 | < 1 | Cc1cc(C(=O)O)ccc1S(=O)(=O)N(Cc1ccc2c(ccn2C)c1)c1ncc(C(F)(F)F)cc1Cl [Example 11, 4-(N-(3-Chloro-5-(trifluoromethyl)pyridin-2-yl)-N-((1-methyl-1H-indol-5-yl)methyl)sulfamoyl)-3-methylbenzoic acid]
23 | < 1 | Cc1cc(C(=O)O)ccc1S(=O)(=O)N(Cc1ccc2c(ccn2C)c1)c1ncc(Cl)cc1Cl [Example 12, 4-(N-(3,5-Dichloropyridin-2-yl)-N-((1-methyl-1H-indol-5-yl)methyl)sulfamoyl)-3-methylbenzoic acid]
24 | < 1 | CCn1cc2cc(CN(c3ncc(C(F)(F)F)cc3Cl)S(=O)(=O)c3ccc(C(=O)O)cc3)ccc2n1 [Example 13, 4-(N-(3-Chloro-5-(trifluoromethyl)pyridin-2-yl)-N-((2-ethyl-2H-indazol-5-yl)methyl)sulfamoyl)benzoic acid]
